Test results reported in US4952678A, “Trisazo dyes” (BASF Aktiengesellschaft, priority 1986, dated 1990).

Columns and labels:
Assay type in all cases: physicochemical
[1] = order parameter S in liquid crystal ZLI 2452 (dichroic ratio by polarized absorbance); details: room temperature, in ZLI 2452
Description: The order parameter S was determined in accordance with the known equation [formula] in a commercial measurement cell of homogeneous edge orientation (polyimide). The dichroic ratio CR was determined by measuring the absorbences E^.parallel. (measurement with light polarized parallel to the preferential direction of the nematic phase) and E^.perp. (measurement with light polarized perpendicular to the preferential direction of the nematic phase) and applying the relationship [formula] the dye concentration being so chosen as to give an E^.parallel. within the range from 1 to 2. The measurements were carried out on an Hitachi U 3200 spectrophotometer.

[2] = solubility in liquid crystal ZLI 2452 (saturated solution, comparison of absorbances); details: room temperature, in ZLI 2452
Description: The solubility was determined as follows:
50 mg of the dye was stirred at room temperature into 1 ml of liquid crystal for 1 week, the saturated solution was centrifuged off the residue, and the solubility was determined by comparing the absorbences.

[3] = absorption maximum in methylene chloride

Order parameter S (at RT) [1]	Solubility L [%] (at RT) [2]	λmax [nm] (CH2 Cl2) [3]	Structure (SMILES)
0.81	2.0%	443 nm	CCCCC(CC)COc1ccc(N=Nc2ccc(N=Nc3ccc(N=Nc4ccc(OCc5ccccc5)c5ccccc45)cc3)cc2)c(CC)c1 (stereo not drawn) [Example 9]
0.81	7.1%	445 nm	CCCCC(CC)COc1ccc(N=Nc2ccc(N=Nc3ccc(N=Nc4ccc(OCc5ccccc5)cc4CC)cc3)cc2)c2ccccc12 (stereo not drawn) [Example 10]
0.81	5.0%	443 nm	CCCCCc1ccc(COc2ccc(N=Nc3ccc(N=Nc4ccc(N=Nc5ccc(OCC(CC)CCCC)cc5CC)cc4)cc3)c3ccccc23)cc1 (stereo not drawn) [Example 14]
0.79	1.6%	486 nm	CCCCC(CC)COc1ccc(N=Nc2ccc(N=Nc3ccc(N=Nc4ccc(OCc5ccccc5)c5ccccc45)cc3)c3ccccc23)c(CC)c1 (stereo not drawn) [Example 19]
0.80	1.3%	489 nm	CCCCC(CC)COc1ccc(N=Nc2ccc(N=Nc3ccc(N=Nc4ccc(OCc5ccccc5)cc4CC)c4ccccc34)cc2)c2ccccc12 (stereo not drawn) [Example 20]
0.79	5.5%	459 nm	CCCCC(CC)COc1ccc(N=Nc2ccc(N=Nc3ccc(N=Nc4ccc(OCc5ccccc5)cc4CC)c(OC)c3)cc2)c2ccccc12 (stereo not drawn) [Example 21]

Continued, compound first:

Structure (SMILES)	Order parameter S (at RT) [1]	Solubility L [%] (at RT) [2]	λmax [nm] (CH2 Cl2) [3]
CCCCC(CC)COc1ccc(N=Nc2ccc(N=Nc3ccc(N=Nc4ccc(OCc5ccccc5)cc4C)cc3)cc2)c(CC)c1 (stereo not drawn) [Example 1]	0.815	18.7%	417 nm
CCCCCCCCOc1ccc(N=Nc2ccc(N=Nc3ccc(N=Nc4ccc(OCc5ccc(CCCCC)cc5)cc4C)cc3)cc2)c(CC)c1 [Example 2]	0.83	5.1%	418 nm
CCCCCCCCOc1ccc(N=Nc2ccc(N=Nc3ccc(N=Nc4ccc(OCc5ccc(CCCCC)cc5)cc4CC)cc3)cc2)c(C)c1 [Example 3]	0.82	5.3%	418 nm
CCCCCCCCOc1ccc(N=Nc2ccc(N=Nc3ccc(N=Nc4ccc(OCc5ccccc5)cc4CC)cc3)cc2)c(CC)c1 [Example 4]	0.79	6.4%	419 nm
CCCCCCCCOc1ccc(N=Nc2ccc(N=Nc3ccc(N=Nc4ccc(OCc5ccc(OCCCCC)cc5)cc4CC)cc3)cc2)c(CC)c1 [Example 5]	0.79	3.5%	418 nm
CCCCCCCCOc1ccc(N=Nc2ccc(N=Nc3ccc(N=Nc4ccc(OCc5ccc(OCCCCC)cc5)c5ccccc45)cc3)cc2)c(CC)c1 [Example 11]	0.79	3.4%	437 nm
CCCCCCCCOc1ccc(N=Nc2ccc(N=Nc3ccc(N=Nc4ccc(OCc5ccc(CCCCC)cc5)c5ccccc45)cc3)cc2)c(CC)c1 [Example 12]	0.79	2.4%	441 nm
CCCCCOc1ccc(COc2ccc(N=Nc3ccc(N=Nc4ccc(N=Nc5ccc(OCC(CC)CCCC)cc5CC)cc4)cc3)c3ccccc23)cc1 (stereo not drawn) [Example 13]	0.79	2.9%	435 nm
CCCCCCCCCCCCNc1ccc(N=Nc2ccc(N=Nc3ccc(N=Nc4ccc(OCCCCCCCC)cc4CC)cc3)cc2)c2ccccc12 [Example 15]	0.81	2.0%	535 nm
CCCCCCCCCCCCNc1ccc(N=Nc2ccc(N=Nc3ccc(N=Nc4ccc(OCC(CC)CCCC)cc4CC)cc3)cc2)c2ccccc12 (stereo not drawn) [Example 16]	0.80	8.0%	533 nm
